From patent publication US8734775B2, “Chemokine derived peptides that bind with chemokine receptor CXCR3 and uses for chronic wound and angiogenesis inhibition treatments” (University of Pittsburgh, priority 2011, dated 2014)

Columns and labels:
Type in all cases: cell-based, human
HMEC-1 cells [1] = assay: Scratch assay of endothelial cell motility; conditions: 24 hours
Description: To determine whether IP-10dp inhibits endothelial cell motility, a conventional “scratch assay” was performed. ELR-negative chemokines, such as IP-10, inhibit fibroblast and endothelial cell motility. IP-10 has been shown in prior literature to inhibit HMEC-1 cells' motility in the presence of angiogenic growth factors VEGF165 and bFGF. Thus, a scratch assay comparison was conducted to examine whether, and to what extent, IP-10dp could mimic the inhibitory effects of the full length IP-10. HMEC-1 cells were plated at 2.5×10^5 cells/well in 12 well culture plates and grown to 80 to 85% confluence and quiesced in 0.5% dialyzed fetal bovine serum for 24 hours at 37° C. in 5% CO2. The cells were washed one time with PBS and then incubated in 0.5% dialyzed MDCB 131 media for 24 hours at 37° C. in 5% CO2. The cultures were scraped with a rubber policeman making a 1 mm wide denuded area. […] Images were taken at time zero and 24 hours, and the relative distance traveled by the cells into the a cellular area was determined using MetaMorph. The HMEC-1 culture images were analyzed for the ability of the cells to migrate into a denuded area over a 24 hour period in the presence or absence of VEGF165.

HMEC-1 cells [2] = assay: Tube formation after pre-treatment with CXCR3-neutralizing antibody
Description: To determine if the IP-10dp peptide is acting through the same signaling pathways as IP-10, an experiment was conducted using a CXCR3-neutralizing antibody (also referred to herein as CXCR3 Ab) to assess that antibody's impact upon IP-10dp's ability to block tube formation. HMEC-1 cells were grown, detached and re-suspended in serum-free media and all were pretreated with CXCR3 Ab (0.5 μg/ml) 30 minutes prior to the addition of VEGF (75 ng/ml), IP-10 (300 ng/ml), IP-10dp (10 μM) and/or Immunoglobulin G (or “IgG,” as control). The thus-treated cells (1×10^4 cells/well) were added to 24-well culture plates coated with growth factor reduced Matrigel and incubated for 24 hours, and endothelial tubes were allowed to form as described above. Images were obtained as above. […]
Quantification of the endothelial tubes formed was performed as above, using MetaMorph, with the data being shown in the graphs of FIG. 6B are of N=6 and normalized to no treatment (average±SEM), and with *P<0.05.

[3] = system: PKA activity in HMEC-1 cells; assay: PKA activity assay in endothelial cells; conditions: IP-10dp 10 μM
Description: To further investigate the cAMP activation of PKA, a PKA assay experiment was conducted. As above, HMEC-1 cells were grown in complete growth media then further incubated in 0.5% dialyzed FBS MCDB 131 media for 24 hours. The cells were then stimulated with forskolin ([…]), and/or combinations of VEGF (100 ng/ml), IP-10 (200 ng/ml), and/or IP-10dp (10 μM) for 15, 30 and 60 minutes. The cells were lysed with an ice-cold hypotonic solution (50 mM Tris pH 7.4, 1 mM EDTA, 10 mg/ml aprotinin and 1 mM PMSF). The cells were incubated on ice for 30 minutes then centrifuged to remove the cell membranes. PKA activity was measured using a commercially available cAMP dependent protein kinase kit (Non-Radioactive Detection kit, from Promega Corp., of Madison, Wis.) according to the manufacturer's protocol. Absorbance was read at 570 nm with the solubilization buffer serving as a blank.

[4] = system: m-calpain in HMEC-1 cells; assay: Calpain activity by Boc-LM-CMAC cleavage; conditions: IP-10dp 10 μM, VEGF 75 ng/ml, BAPTA/AM pre-incubation
Source text: Prior research has also shown that in endothelial cells, the CXCR3-activation of PKA inhibits motility secondary to inhibitory phosphorylation of m-calpain (also known as […]). VEGF induces calpain activity in endothelial cells, and […] (also known as […]) is activated, at least in part, by ERK phosphorylation on serine 50 and in other cells μ-calpain is activated secondary to a calcium flux. In this experiment, the IP-10dp affect on m-calpain is studied by using the membrane permeable synthetic calpain substrate Boc-LM-CMAC. Since the pre-fluorescent substrate Boc-LM-CMAC can be cleaved by both m- and μ-calpain, this experiment used BAPTA/AM, a membrane permeable calcium chelator, to distinguish between m- and μ-calpain activation in cells as this blocks activation of μ-calpain but not m-calpain.
In order to establish whether the IP-10dp inhibition of motility involves this above-described blockade of calpain activation, 8 well chamber slides were coated with 0.1% gelatin for 24 hours at 4° C. The gelatin was removed and HMEC-1 cells were plated at 12,000 cells/well then incubated in 10% FBS-EBM-EC media for 24 hrs. The media was removed and the cells were further incubated for 12 hrs with 0.5% dialyzed FBS-EBM media. All cell cultures were then incubated with either BAPTA AM ([…]), or Calpain inhibitor I (CI-1, […]) at 37° C. for 30 minutes. […]

Sequence: PESKAIKNLLKAVSKEMSKRSP (IP-10dp; listed as Homo sapiens) [synthetic fragment of IP-10 comprising residues 78-98, the C-terminal α-helical domain]
- inhibition of endothelial cell migration, excess over IP-10 (HMEC-1 cells [1]; IP-10dp 10 μM vs IP-10 200 ng/ml): 10%
- inhibition of HMEC-1 cell motility (HMEC-1 cells [1]; IP-10dp 10 μM, with and without VEGF (100 ng/ml)): inhibited motility
- tube formation inhibition after CXCR3 Ab pre-treatment (HMEC-1 cells [2]; CXCR3 Ab 0.5 μg/ml 30 minutes before, IP-10 300 ng/ml, IP-10dp 10 μM): significantly blocked
- effect on VEGF-driven tube formation when CXCR3 receptor neutralized (HMEC-1 cells [2]; CXCR3 Ab 0.5 μg/ml, VEGF 75 ng/ml): unable to override the angiogenic signals from VEGF
- fold increase in PKA assay [3]: 2-3 fold
- PKA activity in comparison to VEGF and untreated cells ([3]; 15, 30 and 60 minutes): significant increase in PKA activity
- VEGF mediated m-calpain activity [4]: inhibits VEGF mediated m-calpain activity
